The values below come from article PMC9917282, “Crystal Structure of Inhibitor-Bound Bacterial Oligopeptidase B in the Closed State: Similarity and Difference between Protozoan and Bacterial Enzymes” (International Journal of Molecular Sciences, 2023).

In the test the target is T1, SpOpB (PSP) (Serratia proteamaculans, UniProt B3VI58).
T1 construct: gene opdB; plasmid pET-6HisOpB, expressed in E. coli BL21(DE3)RIPL; monomer in asymmetric unit
T1 sequence (B3VI58 2-677): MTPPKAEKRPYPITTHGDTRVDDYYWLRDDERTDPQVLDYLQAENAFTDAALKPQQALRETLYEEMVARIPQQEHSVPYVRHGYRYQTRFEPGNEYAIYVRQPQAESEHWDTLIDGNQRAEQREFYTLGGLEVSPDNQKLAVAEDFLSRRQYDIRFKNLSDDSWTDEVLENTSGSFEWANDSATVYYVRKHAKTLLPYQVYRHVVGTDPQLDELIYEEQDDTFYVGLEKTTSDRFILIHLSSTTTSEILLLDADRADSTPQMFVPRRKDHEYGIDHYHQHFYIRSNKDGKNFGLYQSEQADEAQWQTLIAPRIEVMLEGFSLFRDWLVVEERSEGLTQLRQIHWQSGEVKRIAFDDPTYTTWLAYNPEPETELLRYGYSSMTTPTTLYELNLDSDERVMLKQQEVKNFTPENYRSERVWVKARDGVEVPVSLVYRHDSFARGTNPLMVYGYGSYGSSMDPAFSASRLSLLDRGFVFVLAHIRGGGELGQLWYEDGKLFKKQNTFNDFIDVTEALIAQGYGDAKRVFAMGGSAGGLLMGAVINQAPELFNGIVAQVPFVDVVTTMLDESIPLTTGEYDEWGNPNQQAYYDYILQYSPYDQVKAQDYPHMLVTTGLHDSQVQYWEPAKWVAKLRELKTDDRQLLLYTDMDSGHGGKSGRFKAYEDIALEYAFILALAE
Kind of test: Kitz-Wilson inactivation kinetics, residual BAPNA hydrolysis at […] nm; crystal structure of complex at […] A. Type of test: biochemical. The following applies: covalent; irreversible alkylation, Ki of the initial enzyme-inhibitor complex; bound to S532 and H652; 0.1 M Tris-HCl pH 8.0, 25 °C; 70 nM enzyme, 50–260 µM TCK.

`Cc1ccc(S(=O)(=O)N[C@@H](CCCCN)C(=O)CCl)cc1` [TCK] registered a KI (inactivation) of 280 ± 60 µM.
